These results are taken from patent US7939091B2, “Biorational repellents obtained from terpenoids for use against arthropods” (Iowa State University Research Foundation, Inc., priority 1999, dated 2011).

Values joined by “and” are separate entries in the source; they are usually repeats but may differ in a detail not shown here. Identical values can stand only once.

For experiment [1], the system named is German cockroach (Blattella germanica). The experiment in a line: Choice test arena repellency bioassay, adult male German cockroach, 300-second test. Type of experiment: in vivo. The note with it: for Mean Treated / Mean Untreated: 300-second test; for % repellency: (untreated − treated/300)*100. As for the experimental part: Test Procedure. Repellency bioassays were conducted to assess the repellent properties of compositions containing catnip steam distillate (nepetalactone), Z,E-nepetalactone, E,Z-nepetalactone and DEET against cockroaches. Certified acetone and certified hexane were also tested in order to evaluate solvent effects. (DEET was dissolved in acetone, because DEET is insoluble in hexane. The tested compounds were dissolved in hexane because hexane was the solvent used to extract these compounds from the distillate). One Whatman 125-mm round filter paper was cut in half. One side was treated with one (1) ml of the test compound and the other side was treated with one (1) ml of solvent. The papers were allowed to dry in a fume hood for approximately two (2) minutes before being placed in a 150-mm Petri dish arena. The relative position of the treated side (i.e., to the right or left) of the dish was randomized using a random number table. […] The hole was stopped using a small piece of tape to prevent the insect from escaping. One adult male German cockroach (Blattella germanica) was selected from the colony and dropped into the pre-formed hole in the Petri dish lid. […] Ten (10) replications were performed for each test compound. Results. Using mean values and their related Standard Error of the Mean values (SEM), repellency of the selected samples was determined as shown in Table 2. Significance due to concentration was determined using ANOVA. […] Comparisons between test compounds were made using a two-tailed paired t-test (“paired t-test”) which indicates “differences” as is known in the art and shown in Table 4 (as compared with a “one-tailed” test, which indicates “greater or less than”). Testing Procedure. The same procedure described in Example 1 was used.

The test system of experiment [2] is antennectomized male German cockroaches. The experiment in a line: Choice test arena behavioral assay of antennectomized male cockroaches. Type of experiment: in vivo, Blattella germanica. To be noted: Annectomized male cockroaches; 1600 μg/cm^2. As for the experimental part:
Testing Procedure. Male cockroaches were antennectomized by using a razor blade to remove the antennae as close to the head as possible. The cockroaches were allowed to recover from the procedure for 24 hours before being exposed to the test compounds in the bioassay described in Example 1. Results.

Another experiment concerns female German cockroach. The experiment in a line: Choice test arena repellency, female German cockroach. Type of experiment: in vivo, Blattella germanica. Also noted: key: seconds spent on the side during a 300-second period. To be noted: 10% by volume (1600 μg/cm^2) vs. acetone. As for the experimental part:
One Whatman 125-mm round filter paper was cut in half. One side was treated with one (1) ml of the test compound and the other side was treated with one (1) ml of solvent. The papers were allowed to dry in a fume hood for approximately two (2) minutes before being placed in a 150-mm Petri dish arena. The relative position of the treated side (i.e., to the right or left) of the dish was randomized using a random number table. […] The hole was stopped using a small piece of tape to prevent the insect from escaping. One adult male German cockroach (Blattella germanica) was selected from the colony and dropped into the pre-formed hole in the Petri dish lid. Immediately after introduction of the cockroach, the number of seconds the cockroach spent on the treated or untreated side during a 300-second (five (5) minute) period was recorded with two different (2) stopwatches. Ten (10) replications were performed for each test compound.
Testing methods and materials. In this experiment, female German cockroaches were tested in the same manner described in Example 1 against the steam distillates of catnip and the Osage orange. Testing using the commercial repellent, DEET, was also performed for comparison. It is known that male cockroaches are generally more sensitive to repellents, such as DEET, than female cockroaches.

Experiment [3] has as its system German cockroach, Blattella germanica. The experiment in a line: Choice-test arena bioassay (contact irritancy), German cockroach, Example 6. Type of experiment: in vivo. The note with it: 300-second period. As for the experimental part:
(§1) A choice-test arena was used to assess irritancy of test solutions to two common household insect pests, the German cockroach (Blattella germanica) and the house fly (Musca domestica). Catnip essential oil obtained by steam distillation of catnip obtained from the same source as described in the above examples, and the two major components of its essential oil, Z,E-nepetalactone and E,Z-nepetalactone (isolated from the essential oil by preparative TLC), were evaluated for behavioral effects of contact irritancy to the German cockroach. The TLC was performed as described in McElvain, S. M. et al., J. Am. Chem. Soc., 1941, 63, 1558-1563. Catnip essential oil and its major constituent Z,E-nepetalactone were tested against the house fly. N,N-diethyl-m-toluamide (DEET) (Aldrich, St. Louis, Mo.) served as a positive control for the choice-test arena assay and as a point of comparison for measuring insect behavioral effects that result from current commercial insect repellents. Test solutions ranging from 10% to 0.1% (vol/vol) active ingredient (a.i.) were made up in acetone and then delivered on to a filter paper for solvent evaporation. […] Choice-test are for German cockroaches and house flies were constructed from plastic Petri dishes. One-half of a 12.5-cm dia. filter paper was treated with 1 ml test solution, and the other was treated with 1 ml of only solvent (control). Both halves of the filter paper were placed in the choice-test arena. Position of the treated filter paper was randomized using a random-number table.
(§2) Individual German cockroaches or house flies were placed in each choice-test arena through a centered hole in the lid of the Petri dish and evaluated for a 300-second period. The amount of time the insect spent on the treated and untreated filter papers were recorded and used to calculate a percentage repellency value: Percentage Repellency=((Time on Untreated-Time on Treated)/300)×100
(§3) Ten replicates of each treatment solution were tested for both German cockroaches and house flies. Details of this assay design and some results have previously been described.

The test system of experiment [4] is house fly, Musca domestica. The experiment in a line: Choice-test arena bioassay (contact irritancy), house fly. Type of experiment: in vivo. The note with it: for Percentage Repellency: 300-second period. As for the experimental part: as §1, §2, §3
Setting [5] is: 0.1% test solution vs solvent-treated half, male.
Where [6] appears, read: 0.5% test solution vs solvent-treated half, male.
[7] abbreviates: 1% test solution vs solvent-treated half, male.
[8] abbreviates: 5% test solution vs solvent-treated half, male.
The mark [9] stands for this setting: 10% test solution vs solvent-treated half, male.

As for `CCN(CC)C(=O)c1cccc(C)c1` [DEET, N,N-diethyl-3-methylbenzamide, reference compound], the “Mean Treated” value is 129 s in experiment [1] (setting [5]); 128 s in experiment [1] (setting [6]); 120 s in experiment [1] (setting [7]); 113 s in experiment [1] (setting [8]); 63 s and 63.4 s in experiment [1] (setting [9]). Further, the “Mean Untreated” value in experiment [1] (setting [5]) turned out to be 175 s; in experiment [1] (setting [6]) it was 175 s; in experiment [1] (setting [7]) it was 181 s; in experiment [1] (setting [8]), 190 s; in experiment [1] (setting [9]), 238 s. The “Mean seconds on treated side ± SEM” value turned out to be 63.4 ± 15.9 s in experiment [1] (Non-antennectomized male cockroaches, 1600 μg/cm^2); 129 ± 9.0 a seconds in experiment [1] (dose 16 μg/cm^2, male B. germanica, in 300 seconds); 128 ± 9.7 a seconds in experiment [1] (dose 80 μg/cm^2, male B. germanica, in 300 seconds); 120 ± 13.8 a seconds in experiment [1] (dose 160 μg/cm^2, male B. germanica, in 300 seconds); 113 ± 14.5 a seconds in experiment [1] (dose 800 μg/cm^2, male B. germanica, in 300 seconds); 63.4 ± 15.9 b seconds in experiment [1] (dose 1600 μg/cm^2, male B. germanica, in 300 seconds). For the same molecule, in experiment [2], the “Mean seconds on treated side ± SEM” value amounted to 148 ± 17.1 s. The “% repellency” value in experiment [1] (dose 16 μg/cm^2) was 15%; in experiment [1] (dose 80 μg/cm^2) it was 16%; in experiment [1] (dose 160 μg/cm^2), 20%; in experiment [1] (dose 800 μg/cm^2), 26%; in experiment [1] (dose 1600 μg/cm^2) it was 58%. The “Mean seconds on untreated side” value in experiment [2] was found to be 154 ± 17.2 s. In addition, in the experiment with female German cockroach, the “treated, mean of 10 trials” value was determined as 144. For the same molecule, the “untreated, mean of 10 trials” value with female German cockroach is 156.9. Further, in the experiment with female German cockroach (300-second test as Example 1, in s (unit assumed)), the “treated (time on treated side), single trials 1-10” value was 99 and 166 and 116 and 181 and 157 and 146 and 137 and 150. The “Percentage Repellency ± SEM” value in experiment [3] (application rate 80 μg/cm^2) came to 15.5 ± 5.4a %; in experiment [3] (application rate 160 μg/cm^2) it was 20.4 ± 9.2a %; in experiment [3] (application rate 800 μg/cm^2), 25.8 ± 9.5a %; in experiment [3] (application rate 1.60 mg/cm^2), 58.3 ± 10.5b %. Besides, the “higher percentage repellency values (text summary of Table 15)” value in experiment [4] (across application rates tested) was found to be 39%. The results for the “Percentage Repellency” value in experiment [4] (application rate 80 μg/cm^2), in experiment [4] (application rate 160 μg/cm^2) and in experiment [4] (application rate 800 μg/cm^2) were 38.7%, 19.3% and 20.7%, respectively.

Take `C=CC1(C)CCC(C(C)(C)O)CC1C(=C)C` (stereo not shown) [Elemol]: in experiment [1] (amount used 1% solution), the “Mean Treated” value is 107 s, the “Mean Untreated” value is 196 s and the “% repellency” value was 30%.
